Assay results from US7875595B2, “2-polycyclic propynyl adenosine analogs having A2A agonist activity” (University of Virginia Patent Foundation, priority 2004, dated 2011).
Like-named read-outs stand apart in the source and are kept apart here.

What was measured:
[1] = biological target: T1, recombinant human A2A receptors (Homo sapiens, UniProt P29274); assay: Radioligand competition binding to recombinant human A2A receptors in Sf9 cell membranes (125I-APE or 125I-ZM241385); conditions: read-out: A2A (nM) binding affinity
T1 construct: expressed in transfected cells; host or cells: Sf9 insect cells, viral infection, membranes
Description: (§1) Sf9 cells were cultured in Grace's medium supplemented with 10% fetal bovine serum, 2.5 μg/ml amphotericin B and 50 μg/ml gentamycin in an atmosphere of 50% N2/50% O2. Viral infection was performed at a density of 2.5×10^6 cells/mL with a multiplicity of infection of two for each virus used. Infected cells were harvested 3 days post-infection and washed twice in insect PBS (PBS pH 6.3). Cells were then resuspended in lysis buffer (20 mM HEPES pH 7.5, 150 mM NaCl, 3 mM MgCl2, 1 mM β-mercaptoethanol (BME), 5 μg/mL leupeptin, 5 μg/mL pepstatin A, 1 μg/mL aprotinin, and 0.1 mM PMSF) and snap frozen for storage at −80° C. Cells were thawed on ice, brought to 30 mL total volume in lysis buffer, and burst by N2 cavitation (600 psi for 20 minutes). A low-speed centrifugation was performed to remove any unlysed cells (1000×g for 10 minutes), followed by a high-speed centrifugation (17,000×g for 30 minutes). The pellet from the final centrifugation was homogenized in buffer containing 20 mM HEPES pH 8, 100 mM NaCl, 1% glycerol, 2 μg/mL leupeptin, 2 μg/mL pepstatin A, 2 μg/mL Aprotinin, 0.1 mM PMSF, and 10 μM GDP using a small glass homogenizer followed by passage through a 26 gauge needle. Membranes were aliquoted, snap frozen in liquid N2, and stored at −80° C. Membranes from cells stably expressing the human A1 AR(CHO K1 cells) or A3 AR (HEK 293 cells) were prepared as described (Robeva et al., 1996).
(§2) Radioligand binding to recombinant human A2A receptors in Sf9 cell membranes was performed using either the radio labeled agonist, ^125I-APE (Luthin et al., 1995) or the radio labeled antagonist, ^125I-ZM241385 (^125I-ZM). To detect the high affinity, GTPγS-sensitive state of A1 and A3AR, we used the agonist, ^125I-ABA (Linden et al., 1985; Linden et al., 1993). Binding experiments were performed in triplicate with 5 μg (A2A) or 25 μg (A1 and A3) membrane protein in a total volume of 0.1 mL HE buffer (20 mM HEPES and 1 mM EDTA) with 1 U/mL adenosine deaminase and 5 mM MgCl2 with or without 50 μM GTPγS. […] Nonspecific binding was measured in the presence of 50 μM NECA. […]

A3 AR = biological target: T2, A3 AR (Homo sapiens, UniProt P0DMS8); assay: Radioligand competition binding to human A3 adenosine receptor (125I-ABA); conditions: membranes of HEK 293 cells expressing A3 AR, read-out: A3 (nM) binding affinity
T2 construct: expressed in transfected cells
T2 sequence (P0DMS8 1-318): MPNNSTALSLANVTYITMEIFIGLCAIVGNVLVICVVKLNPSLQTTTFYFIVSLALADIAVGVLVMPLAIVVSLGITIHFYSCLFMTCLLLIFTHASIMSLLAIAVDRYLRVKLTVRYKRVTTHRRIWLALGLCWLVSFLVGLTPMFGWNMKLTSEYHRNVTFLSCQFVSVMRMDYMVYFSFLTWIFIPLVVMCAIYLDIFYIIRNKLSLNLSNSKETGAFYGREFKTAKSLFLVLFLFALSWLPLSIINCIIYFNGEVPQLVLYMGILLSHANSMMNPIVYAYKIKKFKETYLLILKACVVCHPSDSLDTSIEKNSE
Description: as §1, §2

human neutrophils = assay: Human neutrophil oxidative activity, luminol-enhanced chemiluminescence (fMLP stimulated); format: cell-based; conditions: human neutrophil experiment as described in Example 6 without Rolipram, peak chemiluminescence, read-out: Functional
Description: Chemiluminescence Methods: Luminol enhanced chemiluminescence, a measure of neutrophil oxidative activity, is dependent upon both superoxide production and mobilization of the granule enzyme myeloperoxidase. The light is emitted from unstable high-energy oxygen species such as hypochlorous acid and singlet oxygen generated by activated neutrophils.
Following incubation 100 µL aliquots of the PMN were transferred to wells (White walled clear bottom 96 well tissue culture plates Costar #3670; 2 wells/condition) containing […] and luminol (final concentration 100 µM) with or without adenosine agonist (final agonist concentrations 0.01-1000 nM). The plate was incubated 5 min (37° C.) and then fMLP ([…] in HA; final concentration […]) was added to all wells.
Peak chemiluminescence was determined with a Victor 1420 Multilabel Counter in the chemiluminescence mode using the Wallace Workstation software. Data are presented as peak chemiluminescence as percent of activity in the absence of an adenosine agonist. The EC50 was determined using PRISM software. All compounds were tested with PMNs from three separate donors.
Purified neutrophils (−98% neutrophils and >95% viable by trypan blue exclusion) containing <1 platelet per 5 neutrophils and <50 pg/ml endotoxin (limulus amebocyte lysate assay) were obtained from normal heparinized (10 U/ml) venous blood by a one step Ficoll-hypaque separation procedure (A. Ferrante et al., J. Immunol. Meth., 36, 109 (1980)).
Luminol-enhanced chemiluminescence, a measure of neutrophil oxidative activity, is dependent upon both superoxide production and mobilization of the lysosomal granule enzyme myeloperoxidase. The light is emitted from unstable high-energy oxygen species generated by activated neutrophils. […] Then luminol (1×10^−4 M) enhanced f-met-leu-phe (1 mcM) stimulated chemiluminescence was read with a Chronolog® Photometer (Crono-log Corp., Havertown, Pa.) at 37° C. for 2-4 minutes. […]

human A1 AR = biological target: T3, human A1 AR (Homo sapiens, UniProt P30542); assay: Radioligand competition binding to human A1 adenosine receptor (125I-ABA); conditions: membranes of CHO K1 cells expressing human A1 AR, read-out: A1 (nM) binding affinity
T3 construct: expressed in transfected cells
T3 sequence (P30542 1-326): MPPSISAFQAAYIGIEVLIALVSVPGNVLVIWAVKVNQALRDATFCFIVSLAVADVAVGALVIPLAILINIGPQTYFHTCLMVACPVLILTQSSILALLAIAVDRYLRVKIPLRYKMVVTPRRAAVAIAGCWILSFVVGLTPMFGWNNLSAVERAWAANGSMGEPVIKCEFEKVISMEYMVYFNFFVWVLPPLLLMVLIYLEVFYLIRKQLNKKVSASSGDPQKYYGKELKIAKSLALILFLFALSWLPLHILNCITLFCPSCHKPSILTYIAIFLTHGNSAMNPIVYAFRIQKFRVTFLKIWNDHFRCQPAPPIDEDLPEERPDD
Description: as §1, §2

T1 sequence (P29274 whole entry): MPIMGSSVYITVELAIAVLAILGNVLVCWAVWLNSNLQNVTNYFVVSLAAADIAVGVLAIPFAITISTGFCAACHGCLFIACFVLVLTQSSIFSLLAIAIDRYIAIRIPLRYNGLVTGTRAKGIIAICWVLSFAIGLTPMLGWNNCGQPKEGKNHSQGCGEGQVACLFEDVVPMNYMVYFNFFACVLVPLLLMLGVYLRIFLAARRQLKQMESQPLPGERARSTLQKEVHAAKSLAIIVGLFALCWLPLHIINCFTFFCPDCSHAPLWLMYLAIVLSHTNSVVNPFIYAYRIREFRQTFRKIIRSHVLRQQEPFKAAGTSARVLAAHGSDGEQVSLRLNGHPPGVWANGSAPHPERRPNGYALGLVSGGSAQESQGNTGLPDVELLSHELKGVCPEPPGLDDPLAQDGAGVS

Structure (SMILES) | Ki [1] [nM] | Ki (A3 AR) [nM] | EC50 (human neutrophils) [nM] | Ki (human A1 AR) [nM] | EC50 (human neutrophils; Homo sapiens, Neutrophil) [nM]
Nc1nc(C#CC2(O)CC3CCC2C3)nc2c1ncn2[C@@H]1O[C@H](C(=O)NC2CC2)C(O)C1O (stereo in doubt) [Example 2, 5-[6-Amino-2-(2-hydroxy-bicyclo[2.2.1]hept-2-ylethynyl)-purin-9-yl]-3,4-dihydroxy-tetrahydro-furan-2-carboxylic acid cyclopropylamide] | 2 | 12 | 1.5 | 18 | 
Nc1nc(C#CC2(O)CC3CCC2C3)nc2c1ncn2[C@@H]1O[C@H](C(=O)NC2CC2)C(O)C1O (stereo in doubt) [Example 1, 5-[6-Amino-2-(2-hydroxy-bicyclo[2.2.1]hept-2-ylethynyl)-purin-9-yl]-3,4-dihydroxy-tetrahydro-furan-2-carboxylic acid cyclopropylamide] | 0.6 | 7 |  | 10 | 0.9
Nc1nc(C#CC2(O)C3CC4CC(C3)CC2C4)nc2c1ncn2[C@@H]1O[C@H](C(=O)NC2CC2)C(O)C1O (stereo in doubt) [Example 3, 5-[6-Amino-2-(2-hydroxy-adamantan-2-ylethynyl)-purin-9-yl]-3,4-dihydroxy-tetrahydro-furan-2-carboxylic acid cyclopropylamide] | 1 | 45.4 |  | 67.2 | 2.4
